Results taken from paper PMC6080416, “Spectroscopic Studies as a Toolbox for Biophysical and Chemical Characterization of Lipid-Based Nanotherapeutics” (Frontiers in Chemistry, 2018).

assay: Fluorescence quenching of n-AS probes in MLVs of EPC (drug location); format: physicochemical; conditions: MLVs of EPC labeled with n-AS probes
Protocol: Three independent experiments were carried out.
This type of fluorescence quenching can be described by the Stern-Volmer linear plots (Equation 5 and Figures 7A,B) where the fluorescence emission intensities of the labeled nanocarrier in the absence (I0) and in the presence (I) of the quencher (drugs) are plotted against the quencher concentration [Q] and it is possible to obtain linear relations in which the intercept is zero and the slope corresponds to Stern-Volmer constant, KSVapp (Lakowicz, [2014]):
The Stern-Volmer plots of the fluorescence quenching provoked by increasing concentrations of Indomethacin are not linear and present positive deviations (Figure 7C). Positive deviations from the Stern-Volmer equation are often observed when the extent of quenching is large and these deviations from linearity indicate that the quenching mechanism cannot be explained solely by a collisional mechanism (Lakowicz, [2014]). There is an apparent static quenching component caused by the close proximity of deactivating drug and fluorophore at excitation moment. The quenching is still collisional, but the existence of fluorophores and quenchers located very close to each other causes an immediate fluorescence deactivation and therefore the fluorophore and the drug appear to form non-fluorescent complexes (Lakowicz, [2014]). This type of fluorescence quenching is usually interpreted in terms of a “sphere of action” (Equation 7) within which the possibility of deactivation is equal to unity (Lakowicz, [2014]).
(7) I0/I=(1+KSVapp[Q])e^[Q]Vapp
By representing graphically I0/(Ie^[Q]Vapp) as a function of [Q], linear relations were obtained in which the slope corresponds to KSVapp (Figure 7D). Thus, Indomethacin quenching efficiency followed approximately the same order as that obtained for Acemetacin: 2-AS < 6-AS < 9-AS < 12-AS.

Row | SMILES | Drug location within the lipid nanocarrier inferred from Kqapp
1 | Cc1ccc(C(=O)c2ccc(CC(=O)O)n2C)cc1 [Tolmetin] | preferential location of Tolmetin at the polar headgroup region of the lipid nanocarriers
2 | COc1ccc2c(c1)c(CC(=O)O)c(C)n2C(=O)c1ccc(Cl)cc1 [Indomethacin] | able to reach a more inner location within the lipid nanocarrier
3 | COc1ccc2c(c1)c(CC(=O)OCC(=O)O)c(C)n2C(=O)c1ccc(Cl)cc1 [Acemetacin] | can reach an inner location at the lipid nanocarrier
